These are literature values, as cited in patent US8193226B2, “Candesartan cilexetil” (Zhejiang Huahai Pharmaceutical Co., Ltd., priority 2007, dated 2012).

SMILES strings stand for the structures. Like-named read-outs stand apart in the source and are kept apart here.

Test in series [1]: not given
The source holds these as a separate data set.

Test in series [2]: not given
This is another data set of the same source.

By bioavailability is commonly meant the share of a dose that reaches the circulation, judged against a reference dose that is usually intravenous. For the molecule `CCOc1nc2cccc(C(=O)OC(C)OC(=O)OC3CCCCC3)c2n1Cc1ccc(-c2ccccc2-c2nn[nH]n2)cc1` (stereo not drawn) [candesartan cilexetil], the bioavailability reads like this: (solution) 40%; (tablet) 15%. In series [1] (in the presence of other pharmaceutically acceptable additives, or at granulation or tableting), the “stability when processed into a tablet” value is reported as “tends to decompose”. Also, the “stability of the drug as such” value in series [1] (isolated form, exposed to increased temperatures, humidity and light) is “stable”. Further, the “solubility in alcoholic solvents” value in series [2] (alcoholic solvents) is reported as “readily soluble”. Moreover, the solubility in water entry in series [2] (water) is “practically insoluble”.
